Source: patent publication US4731360A, “Acylcarnitines as absorption-enhancing agents for drug delivery through mucous membranes of the nasal, buccal, sublingual and vaginal compartments” (Merck & Co., Inc., priority 1985, dated 1988)

What was measured:
[1] = tested on: mucosal cells; conditions: studies of surfactants; cited from earlier work
[2] = tested on: mucous membranes of the nasal, buccal, sublingual and vaginal compartments; assay: Promotion of drug absorption through mucous membranes; conditions: without acyl ester
[3] = Percent bioavailability of α-methyldopa after nasal, oral (buccal) or vaginal administration to rats, with or without palmitoylcarnitine chloride; blood levels by HPLC, against intravenous administration; type: in vivo; conditions: aqueous formulation, mean ± SD, n = 3, vs intravenous; for Percent α-methyldopa Bioavailability in the Presence (+) of Palmitoylcarnitine: with 1.0 mg palmitoylcarnitine chloride; for Percent α-methyldopa Bioavailability in the Absence (-) of Palmitoylcarnitine: without palmitoylcarnitine
Protocol: Effect of palmitoylcarnitine chloride on the nasal, buccal and vaginal absorption of α-methyldopa (amino acid, antihypertensive). Experiments were performed with rats wherein each animal received an aqueous formulation administered to the nasal, oral or vaginal cavities. The formulations contained the indicated amount of α-methyldopa in the presence or absence of 1.0 mg palmitoylcarnitine chloride. Procedures were tested to eliminate the possibility of cross-contamination between the nasal and oral cavities. Blood levels of α-methyldopa were determined by high performance liquid chromatography and the amount of drug absorbed (percent bioavailability) calculated against intravenous α-methyldopa administration. | Values represent the mean ± SD for n = 3 determinations.

[4] = nasal cavity, α-methyldopa 0.5 mg
[5] = oral cavity (buccal), α-methyldopa 2.5 mg
[6] = vaginal cavity, α-methyldopa 2.5 mg

## CCCCCCCCCCCCOS(=O)(=O)[O-].[Na+] [sodium lauryl sulfate]
[1]
  cellular damage associated with surfactant activity: generally associated with some degree of cellular damage

## C[N+](C)(C)CC(O)CC(=O)[O-] (centres unmarked) [carnitine]
[2]
  absorption promoting effect of carnitine alone: no effect

## C[C@](N)(Cc1ccc(O)c(O)c1)C(=O)O [α-methyldopa]
[3]; [4]
  Percent α-methyldopa Bioavailability in the Presence (+) of Palmitoylcarnitine: 52 ± 16.2%
  Percent α-methyldopa Bioavailability in the Absence (-) of Palmitoylcarnitine: 7 ± 1.1%
[3]; [5]
  Percent α-methyldopa Bioavailability in the Presence (+) of Palmitoylcarnitine: 10 ± 6.0%
  Percent α-methyldopa Bioavailability in the Absence (-) of Palmitoylcarnitine: 3 ± 0.7%
[3]; [6]
  Percent α-methyldopa Bioavailability in the Presence (+) of Palmitoylcarnitine: 100 ± 55.0%
  Percent α-methyldopa Bioavailability in the Absence (-) of Palmitoylcarnitine: 2 ± 1.0%
